Experimental data: patent US20250241897A1, “COMPOSITION FOR ERADICATING HELICOBACTER PYLORI” (HK INNO.N CORPORATION, priority 2018, published 2025)

Tests used:
intragastric pH = experiment: Clinical study 1, Cohort 2: 24-hour intragastric pH measurement on repeated co-administration; format: in vivo, human; conditions: with amoxicillin/clarithromycin
Description: To identify an effect of eradicating Helicobacter pylori in the present invention, a clinical study was designed in accordance with a randomized, open-label, active-controlled, parallel and multiple-dose design. A total of 221 patients were subjected to screening for this study. Out of them, 36 patients were registered thereto and the completed clinical results were obtained from 34 patients.
Particularly, the 36 patients above were divided into three patient groups (T1, T2 and R) and the clinical study was performed accordingly. […]
The T1 group was repeatedly given 50 mg of CJ-12420 and 1000 mg of amoxicillin/500 mg of clarithromycin twice a day for seven days; the T2 group was repeatedly given 100 mg of CJ-12420 and 1000 mg of amoxicillin/500 mg of clarithromycin twice a day for seven days; and the R group was repeatedly given 40 mg of pantoprazole and 1000 mg of amoxicillin/500 mg of clarithromycin twice a day for seven days. An intragastric pH was measured from all the subjects on Day 1 for 24 hours, and the intragastric pH was also measured for 24 hours on Day 1 and Day 7 of repeated administration. Also, a negative conversion rate was calculated upon a follow-up visit paid by subjects who were identified to be H. pylori positive on the UBT test during screening, and stability evaluation was performed according to a predetermined schedule. […]

[1] = Clinical study 1, Cohort 1: pharmacokinetic interaction of tegoprazan and amoxicillin/clarithromycin, multiple dose; format: in vivo, human
Description: To evaluate pharmacokinetic interaction of multiple-dose administration of single and combination of tegoprazan and amoxicillin/clarithromycin, a clinical study was designed in accordance with a randomized, open-label, and multiple-dose design.
A total of 24 subjects who had been determined eligible to participate in the study were randomly assigned in a 1:1 ratio to each one of the two groups. Each randomly-assigned group was administered with investigational medical products as arranged during each intervention period and underwent a clinical study as designed. In consideration of the half-life of each product, a 14-day wash-out period was given between the intervention periods.
A total of 24 subjects were divided into group 1 and group 2. During the first intervention period, subjects of group 1 (12 person) were repeatedly administered with 100 mg of tegoprazan twice a day for four days and administered once a day on the fifth day on which a pharmacokinetic clinical study was conducted. During the second intervention period after a 14-day wash-out period, they were repeatedly administered with 1000 mg of amoxicillin and 500 mg of clarithromycin twice a day for four days and administered once a day on the fifth day. During the third intervention period after a 14-day wash-out period, they were repeatedly administered with 100 mg of tegoprazan, 1000 mg of amoxicillin, and 500 mg of clarithromycin twice a day for six days and administered once a day on the seventh day. Following the last dose of each intervention period, pharmacokinetic blood samples were collected for 17 times over 72 hours in the first period, 14 times over 48 hours in the second period, and 19 times over 120 hours in the third period.
Drugs were administered to subjects of group 2 (12 person) in the reverse order to the way the study was conducted on group 1 in the first and second intervention periods and in the same order in the third intervention period. Pharmacokinetic blood samples were collected in the same manner as group 1.
The average plasma concentrations of tegoprazan, clarithromycin, and amoxicillin were measured and time-based plasma concentration and time-based drug concentration patterns were observed when tegoprazan was repeatedly administered alone, amoxicillin/clarithromycin were repeatedly administered and tegoprazan, amoxicillin, and clarithromycin were repeatedly administered in combination.
Pharmacokinetics of tegoprazan, amoxicillin, and clarithromycin were evaluated. Descriptive statistics of pharmacokinetic evaluation parameters were presented. Point estimates for geometric mean ratio between each group and 90% confidence interval were calculated from the log-converted primary pharmacokinetic evaluation parameters by using a linear mixed effect model.

[2] = tegoprazan 100 mg twice a day, combination with amoxicillin 1000 mg/clarithromycin 500 mg versus alone
[3] = clarithromycin 500 mg with amoxicillin 1000 mg twice a day, with versus without tegoprazan 100 mg

Row | SMILES | time to increase pH to 6 or more right after the administration (intragastric pH) | increase of AUC of tegoprazan when administered in combination with amoxicillin/clarithromycin [1, 2] [times] | increase of Cmax of tegoprazan when administered in combination with amoxicillin/clarithromycin [1, 2] [times] | AUC of clarithromycin when administered in combination with tegoprazan [1, 3] | Cmax of clarithromycin when administered in combination with tegoprazan [1, 3]
1 | Cc1nc2c(OC3CCOc4cc(F)cc(F)c43)cc(C(=O)N(C)C)cc2[nH]1 (centres unmarked) [Tegoprazan, 4-[(5,7-difluoro-3,4-dihydro-2H-chromene-4-yl)oxy]-N,N,2-trimethyl-1H-benzimidazole-6-carboxamide] | two | 2.70 | 2.24 |  | 
2 | CC[C@H]1OC(=O)[C@H](C)[C@@H](O[C@H]2C[C@@](C)(OC)[C@@H](O)[C@H](C)O2)[C@H](C)[C@@H](O[C@@H]2O[C@H](C)C[C@H](N(C)C)[C@H]2O)[C@](C)(OC)C[C@@H](C)C(=O)[C@H](C)[C@@H](O)[C@]1(C)O [clarithromycin, (3R,4S,5S,6R,7R,9R,11R,12R,13S,14R)-6-[(2S,3R,4S,6R)-4-(dimethylamino)-3-hydroxy-6-methyloxane-2-yl]oxy-14-ethyl-12,13-dihydroxy-4-[(2R,4R,5S,6S)-5-hydroxy-4-methoxy-4,6-dimethyloxane-2-yl]oxy-7-methoxy-3,5,7,9,11,13-hexamethyl-oxacyclotetradecane-2,10-dione, reference compound] |  |  |  | showed a tendency to increase | showed a tendency to increase
